In PMC11154920 (ACS Omega, 2024):

Experiments:
[1] = tested on: Cytochrome P450 2D6 (CYP2D6); settings: cited from earlier work
[2] = Stability of DEM and DEX in rat plasma; format: physicochemical
[3] = tested on: cytochrome P450 3A4 (CYP3A4); settings: cited from earlier work
[4] = cited from earlier work
CYP3A4 = settings: in vitro; cited from earlier work
[5] = autosampler stability (64 h and 3 min), HQC
[6] = autosampler stability (64 h and 3 min), LQC
[7] = benchtop stability (19 h and 28 min), HQC, rat plasma
[8] = benchtop stability (19 h and 28 min), LQC, rat plasma
[9] = freeze thaw stability (five cycles), HQC
[10] = freeze thaw stability (five cycles), HQC: nominal DEM 302.52, DEX 156.76 ng/mL
[11] = freeze thaw stability (five cycles), LQC
[12] = freeze thaw stability (five cycles), LQC: nominal DEM 0.58, DEX 0.30 ng/mL
[13] = long-term stability (49 days), HQC
[14] = long-term stability (49 days), LQC
[15] = long-term stability (49 days), −70 °C, HQC: nominal DEM 302.52, DEX 156.76 ng/mL
[16] = long-term stability (49 days), −70 °C, LQC: nominal DEM 0.58, DEX 0.30 ng/mL
[17] = processed sample stability (28 h and 21 min), HQC
[18] = processed sample stability (28 h and 21 min), LQC
[19] = wet extract stability (42 h and 12 min), HQC
[20] = wet extract stability (42 h and 12 min), LQC
[21] = wet extract stability (42 h and 12 min), LQC: nominal DEM 0.58, DEX 0.30 ng/mL

| Structure (SMILES) | % difference [2, 5] | % difference [2, 6] | % difference [2, 7] | % difference [2, 8] | % difference [2, 9] | calculated conc. [2, 10] | % difference [2, 11] | calculated conc. [2, 12] | % difference [2, 13] | % difference [2, 14] | calculated conc. [2, 15] | calculated conc. [2, 16] | % difference [2, 17] | % difference [2, 18] | % difference [2, 19] | % difference [2, 20] | calculated conc. [2, 21] | further results |
| --- | --- | --- | --- | --- | --- | --- | --- | --- | --- | --- | --- | --- | --- | --- | --- | --- | --- | --- |
| COc1ccc2c(c1)[C@]13CCCC[C@@H]1[C@H](C2)N(C)CC3 [DEM, Dextromethorphan] | 2.32% | 3.51% | –0.36% | 5.29% | –2.53% | 293.62 ± 16.24 ng/mL | 1.72% | 0.57 ± 0.03 ng/mL | –0.54% | 3.51% | 299.62 ± 9.41 ng/mL | 0.58 ± 0.03 ng/mL | 2.35% | –0.06% | –0.83% | 8.86% | 0.61 ± 0.05 ng/mL | share of metabolism of DEM to DEX by CYP2D6 [1]: 80%; share of metabolism of DEM to 3-methoxymorphinan by CYP3A4 [3]: 90% |
| CN1CC[C@@]23CCCC[C@@H]2[C@@H]1Cc1ccc(O)cc13 [DEX, dextrorphan] | –3.41% | –3.45% | –0.70% | 0.00% | 0.66% | 156.02 ± 1.22 ng/mL | 3.45% | 0.30 ± 0.02 ng/mL | 0.32% | 3.45% | 155.49 ± 7.51 ng/mL | 0.30 ± 0.02 ng/mL | –1.99% | 3.45% | –0.69% | 6.90% | 0.31 ± 0.02 ng/mL | fraction rapidly glucuronidated [4]: 98% |
| COc1cc2c(cc1O)CC[n+]1cc3c(OC)c(OC)ccc3cc1-2 [M38, jatrorrhizine] | – | – | – | – | – | – | – | – | – | – | – | – | – | – | – | – | – | inhibition of CYP3A4 (CYP3A4): reported to inhibit CYP3A4 |
